Measurements taken from a flash point compilation (Sun et al. 2020).

SMILES | flash point
CCC(=O)OCc1ccccc1 [benzylpropanoate] | 96 °C
COCCNCCOC [bis(2-methoxyethyl)amine] | 58 °C
Brc1ccccc1 [bromobenzene] | 51 °C
BrC1CCCCC1 [bromocyclohexane] | 62 °C
CCBr [bromoethane] | -20 °C
CCCC=O [butanal] | -7 °C
CCCC(=O)O [butanoicacid] | 69 °C
CCCCOC(C)=O [butylacetate] | 25 °C
CCCCC1CCCC1 [butylcyclopentane] | 32 °C
CCCCOC=O [butylformate] | 18 °C
CCCCOC [butylmethylether] | -10 °C
CCCCOC(=O)CC [butylpropanoate] | 38 °C
CCCC#N [butyronitrile] | 18 °C
Clc1ccccc1 [chlorobenzene] | 28 °C
ClC1CCCC1 [chlorocyclopentane] | 15 °C
C[C@H]1CC[C@@H](C)CC1 [cis-1,4-dimethylcyclohexane] | 6 °C
C/C=C\CCCC [cis-2-heptene] | -6 °C
C/C=C\CCC [cis-2-hexene] | -25 °C
CC/C=C\CCC [cis-3-heptene] | -9 °C
CCC/C=C\CCC [cis-4-octene] | 17 °C
C1CC[C@H]2CCCC[C@H]2C1 [cis-decalin] | 57 °C
NC1CCC1 [cyclobutylamine] | -4 °C
O=C1CCCCCC1 [cycloheptanone] | 56 °C

SMILES | flash point
O=CC1CCCCC1 [cyclohexanecarboxaldehyde] | 41 °C
OC1CCCCC1 [cyclohexanol] | 63 °C
O=C1CCCCC1 [cyclohexanone] | 43 °C
C1CCC2OC2C1 (stereo not given) [cyclohexeneoxide] | 24 °C
C=C(C)C(=O)OC1CCCCC1 [cyclohexylmethacrylate] | 82 °C
CCC(=O)OC1CCCCC1 [cyclohexylpropanoate] | 68 °C
C1CCCCCCCC1 [cyclononane] | 43 °C
OC1CCCC1 [cyclopentanol] | 51 °C
COC1CCCC1 [cyclopentylmethylether] | -1 °C
NC1CC1 [cyclopropylamine] | -25 °C
CCCCCCCCCC=O [decanal] | 83 °C
CCCCCCCCCC#N [decanenitrile] | 92 °C
CCCCCCCCCCOC(C)=O [decylacetate] | 104 °C
CCC(C)SC(C)CC (stereo not given) [di-sec-butylsulfide] | 39 °C
CC(C)(C)SC(C)(C)C [di-tert-butylsulfide] | 27 °C
C=CCSSCC=C [diallyldisulfide] | 62 °C
C=CCOCC=C [diallylether] | -7 °C
CCOCOCC [diethoxymethane] | -5 °C
CCOC(=O)OCC [diethylcarbonate] | 33 °C
CCSSCC [diethyldisulfide] | 39 °C
CCOCC [diethylether] | -40 °C
CCSCC [diethylsulfide] | -10 °C
CC(C)CNCC(C)C [diisobutylamine] | 30 °C

SMILES | flash point
CC(C)CC(=O)CC(C)C [diisobutylketone] | 49 °C
CC(C)COC(=O)c1ccccc1C(=O)OCC(C)C [diisobutylphthalate] | 185 °C
CC(C)CCSCCC(C)C [diisopentylsulfide] | 77 °C
CC(C)OC(C)C [diisopropylether] | -28 °C
CCCCCOCCCCC [dipentylether] | 57 °C
c1ccc(Cc2ccccc2)cc1 [diphenylmethane] | 127 °C
CCCNCCC [dipropylamine] | 7 °C
CCCOC(=O)OCCC [dipropylcarbonate] | 55 °C
CCCSCCC [dipropylsulfide] | 28 °C
C=COC=C [divinylether] | -47 °C
CCCCCCCCCCCC=O [dodecanal] | 102 °C
CCO [ethanol] | 12 °C
CCOC(=O)C(C)C [ethyl2-methylpropanoate] | 13 °C
CCOC(=O)CC(C)=O [ethylacetoacetate] | 70 °C
CCc1ccccc1 [ethylbenzene] | 21 °C
CCOC(=O)c1ccccc1 [ethylbenzoate] | 84 °C
CCCC(=O)OCC [ethylbutanoate] | 20 °C
CCOC(=O)CCl [ethylchloroacetate] | 53 °C
CCOC(=O)C=Cc1ccccc1 [ethylcinnamate] | 135 °C
CCOC=O [ethylformate] | -19 °C
C=C(C)C(=O)OCC [ethylmethacrylate] | 19 °C
CCSC [ethylmethylsulfide] | -18 °C
CCCCC(=O)OCC [ethylpentanoate] | 35 °C

SMILES | flash point
CCCOCC [ethylpropylether] | -25 °C
C=COCC [ethylvinylether] | -45 °C
Fc1ccccc1 [fluorobenzene] | -15 °C
O=Cc1ccco1 [furfural] | 58 °C
OCc1ccco1 [furfurylalcohol] | 75 °C
CCCCCCC(=O)O [heptanoicacid] | 109 °C
CCCCCCCOC(C)=O [heptylacetate] | 67 °C
CCCCCCCN [heptylamine] | 44 °C
CCCCCCCOC=O [heptylformate] | 60 °C
CCCCCC(=O)O [hexanoicacid] | 102 °C
CCCCCC(=O)OC(=O)CCCCC [hexanoicanhydride] | 113 °C
CCCCCCN [hexylamine] | 27 °C
CCCCCCc1ccccc1 [hexylbenzene] | 83 °C
CCCCCCOC(=O)CC [hexylpropanoate] | 65 °C
CC(C)C(=O)OC(=O)C(C)C [isobutanoicanhydride] | 67 °C
CC(C)C#N [isobutyronitrile] | 8 °C
O=[N+]([O-])c1ccccc1 [nitrobenzene] | 88 °C
CCc1ccccc1C [o-ethyltoluene] | 39 °C
Cc1ccccc1N [o-toluidine] | 85 °C
Cc1ccccc1C [o-xylene] | 30 °C
CCC#N [propionitrile] | 6 °C

The remaining lines, values ahead:

flash point | SMILES
-10 °C | CC(C)CN [isobutylamine]
50 °C | CC(C)Cc1ccccc1 [isobutylbenzene]
102 °C | CC(C)COC(=O)c1ccccc1 [isobutylbenzoate]
4 °C | CC(C)COC=O [isobutylformate]
46 °C | CCC(=O)OCCC(C)C [isopentylpropanoate]
84 °C | CC1=CC(=O)CC(C)(C)C1 [isophorone]
2 °C | CC(=O)OC(C)C [isopropylacetate]
33 °C | CC(C)OCC1CO1 (stereo not given) [isopropylglycidylether]
-47 °C | COC(C)C [isopropylmethylether]
51 °C | CCc1cccc(CC)c1 [m-diethylbenzene]
38 °C | CCc1cccc(C)c1 [m-ethyltoluene]
47 °C | Cc1cccc(C(C)C)c1 [m-isopropyltoluene]
89 °C | CCCCCC#CC(=O)OC [methyl2-octynoate]
80 °C | COC(=O)c1ccccc1 [methylbenzoate]
60 °C | COC(=O)C1CCCCC1 [methylcyclohexanecarboxylate]
18 °C | COC(=O)C1CC1 [methylcyclopropanecarboxylate]
52 °C | CCCCCCC(=O)OC [methylheptanoate]
10 °C | C=C(C)C(=O)OC [methylmethacrylate]
22 °C | CCCCC(=O)OC [methylpentanoate]
-2 °C | CCC(=O)OC [methylpropanoate]

flash point | SMILES
63 °C | CCCCCCCCC=O [nonanal]
117 °C | CCCCCCCCCc1ccccc1 [nonylbenzene]
50 °C | Cc1ccccc1C(C)C [o-isopropyltoluene]
51 °C | CCCCCCCC=O [octanal]
82 °C | CCCCCCCCOC(C)=O [octylacetate]
60 °C | CCCCCCCCN [octylamine]
107 °C | CCCCCCCCc1ccccc1 [octylbenzene]
69 °C | CCCCCCCCOC=O [octylformate]
55 °C | CCc1ccc(CC)cc1 [p-diethylbenzene]
47 °C | Cc1ccc(C(C)C)cc1 [p-isopropyltoluene]
85 °C | CCCCC(=O)O [pentanoicacid]
4 °C | CCCCCN [pentylamine]
66 °C | CCCCCc1ccccc1 [pentylbenzene]
63 °C | CCCCCC1CCCCC1 [pentylcyclohexane]
26 °C | CCCCCOC=O [pentylformate]
58 °C | CCC(=O)O [propionicacid]
10 °C | CCCOC(C)=O [propylacetate]
24 °C | C=CC(=O)OCCC [propylacrylate]
-30 °C | CCCN [propylamine]
30 °C | CCCc1ccccc1 [propylbenzene]
